Results taken from patent publication US8697877B2, “Oxyindole derivatives with motilin receptor agonistic activity” (RaQualia Pharma Inc., priority 2009, dated 2014).

Each molecule was assayed against T1, human motilin receptor (GPR38) (Homo sapiens, UniProt O43193) (assay: GPR38 (Motilin Receptor) Functional Assay, NFAT-beta-lactamase reporter in CHO-K1 cells). Conditions: not given.
T1 construct: expressed in transfected cells; host or cells: CHO-K1
Assay type: cell-based
Procedure: The potencies and efficacies of the compounds of this invention for GPR38 can be determined by reporter assay performed on the human cloned receptor as described herein.
GPR38 (Motilin Receptor) Functional Assay
A CHO-K1 cell line stably transfected NFAT-beta-lactamase reporter and human motilin receptor gene was used. The cells were cultured in culture medium (Dulbecco's modified eagle medium containing 10% fetal bovine serum, 1 mM sodium pyruvate, 0.1 mM MEM nonessential amino acids, 25 mM HEPES buffer, 50 units/mL penicillin, 50 microg/mL streptomycin, 100 microg/mL zeocin, and 500 microg/mL G418). The cells were harvested with 0.05% trypsin EDTA and centrifuged. The cell pellets were resuspended in the culture medium and plated into a black/clear bottom 384-well plate at a density of 8000 cells per well, then incubated at 37° C. with 5% CO2 for over night (about 20 hours). On the day of assay, the culture medium was aspirated and 20 microL of assay medium (Dulbecco's modified eagle medium containing 100 units/mL penicillin and 100 microg/mL streptomycin) was added to each well, then the cell plates were placed in incubator at 37° C. with 5% CO2 for 1.5 hours. Compounds were prepared in 100% DMSO and these were diluted to 5× of final concentration with assay buffer (Hanks balanced salt solution, 20 mM HEPES, and 0.1% BSA), then dispensed into 384-well plate (5 microL/well). After incubation at 37° C. with 5% CO2 for 4.5 hours, CCF4-AM loading solution (Invitrogen Corp.) was added to each well. After incubation for 2 hours at room temperature, fluorescence intensities were measured by using plate reader FDSS (Hamamatsu Photonics K. K.) with excitation 400 nm, emission 465 nm/540 nm. Agonistic activity (EC50) was calculated from the sigmoidal dose-response curve using GraphPad Prism software (GraphPad Software, Inc.).

T1 sequence (O43193 whole entry): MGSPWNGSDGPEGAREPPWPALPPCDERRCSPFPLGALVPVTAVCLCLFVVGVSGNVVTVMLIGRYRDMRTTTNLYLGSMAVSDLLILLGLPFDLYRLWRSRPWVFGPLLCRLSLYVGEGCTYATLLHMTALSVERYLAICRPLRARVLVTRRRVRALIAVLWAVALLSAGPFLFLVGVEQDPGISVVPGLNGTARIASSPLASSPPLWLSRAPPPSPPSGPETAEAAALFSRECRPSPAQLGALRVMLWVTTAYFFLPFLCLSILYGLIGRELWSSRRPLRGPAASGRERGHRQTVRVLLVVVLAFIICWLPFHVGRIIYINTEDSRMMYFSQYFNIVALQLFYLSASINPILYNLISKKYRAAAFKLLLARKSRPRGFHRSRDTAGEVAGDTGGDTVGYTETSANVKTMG

Compound	EC50
CN[C@@H]1CC[C@H](C(=O)N[C@@H](Cc2ccccc2F)C(=O)N2CCC(N3C(=O)C(C)(C)c4ccccc43)CC2)C1 [Example 32, (1S,3R)-N-((S)-1-(4-(3,3-dimethyl-2-oxoindolin-1-yl)piperidin-1-yl)-3-(2-fluorophenyl)-1-oxopropan-2-yl)-3-(methylamino)cyclopentane-carboxamide]	≤ 10 nM
CN[C@@H]1CC[C@H](C(=O)N[C@@H](CC(C)C)C(=O)N2CCC(N3C(=O)C(C)(C)c4ccccc43)CC2)C1 [Example 33, (1S,3R)-N-((S)-1-(4-(3,3-dimethyl-2-oxoindolin-1-yl)piperidin-1-yl)-4-methyl-1-oxopentan-2-yl)-3-(methylamino) cyclopentanecarboxamide]	≤ 10 nM
CN[C@@H]1CC[C@H](C(=O)N[C@@H](Cc2c[nH]c3ccccc23)C(=O)N2CCC(N3C(=O)C(C)(C)c4ccccc43)CC2)C1 [Example 34, (1S,3R)-N-((S)-1-(4-(3,3-dimethyl-2-oxoindolin-1-yl)piperidin-1-yl)-3-(1H-indol-3-yl)-1-oxopropan-2-yl)-3-(methylamino)cyclopentane-carboxamide]	≤ 10 nM
CN[C@@H]1CC[C@H](C(=O)N[C@@H](Cc2cccc(C(F)(F)F)c2)C(=O)N2CCC(N3C(=O)C(C)(C)c4ccccc43)CC2)C1 [Example 35, (1S,3R)-N-((S)-1-(4-(3,3-dimethyl-2-oxoindolin-1-yl)piperidin-1-yl)-1-oxo-3-(3-(trifluoromethyl)phenyl)propan-2-yl)-3-(methylamino)cyclo-pentanecarboxamide]	≤ 10 nM
CN[C@@H]1CC[C@H](C(=O)N[C@@H](Cc2ccc(C(F)(F)F)cc2)C(=O)N2CCC(N3C(=O)C(C)(C)c4ccccc43)CC2)C1 [Example 36, (1S,3R)-N-((S)-1-(4-(3,3-dimethyl-2-oxoindolin-1-yl)piperidin-1-yl)-1-oxo-3-(4-(trifluoromethyl)phenyl)propan-2-yl)-3-(methylamino)cyclo-pentanecarboxamide]	≤ 10 nM
CN[C@@H]1CC[C@H](C(=O)N[C@@H](Cc2ccc(OC)cc2)C(=O)N2CCC(N3C(=O)C(C)(C)c4ccccc43)CC2)C1 [Example 37, (1S,3R)-N-((S)-1-(4-(3,3-dimethyl-2-oxoindolin-1-yl)piperidin-1-yl)-3-(4-methoxyphenyl)-1-oxopropan-2-yl)-3-(methylamino)cyclopentanecarboxamide]	≤ 10 nM
CN[C@@H]1CC[C@H](C(=O)N[C@@H](COc2ccccc2)C(=O)N2CCC(N3C(=O)C(C)(C)c4ccccc43)CC2)C1 [Example 38, (1S,3R)-N-((S)-1-(4-(3,3-dimethyl-2-oxoindolin-1-yl)piperidin-1-yl)-1-oxo-3-phenoxypropan-2-yl)-3-(methyl-amino)cyclopentanecarboxamide]	≤ 10 nM
CN[C@@H]1CC[C@H](C(=O)N[C@@H](COc2ccccc2Cl)C(=O)N2CCC(N3C(=O)C(C)(C)c4ccccc43)CC2)C1 [Example 39, (1S,3R)-N-((S)-3-(2-chlorophenoxy)-1-(4-(3,3-dimethyl-2-oxoindolin-1-yl)piperidin-1-yl)-1-oxopropan-2-yl)-3-(methylamino)cyclopentanecarboxamide]	≤ 10 nM
CN[C@@H]1CC[C@H](C(=O)N[C@H](CC(=O)N2CCC(N3C(=O)C(C)(C)c4ccccc43)CC2)Cc2ccccc2)C1 [Example 43, (1S,3R)-N-((S)-4-(4-(3,3-dimethyl-2-oxoindolin-1-yl)piperidin-1-yl)-4-oxo-1-phenylbutan-2-yl)-3-(methylamino) cyclopentanecarboxamide]	≤ 10 nM
CC1(C)C(=O)N(C2CCN(C(=O)[C@H](CCc3ccccc3)NC(=O)[C@@H]3CCCNC3)CC2)c2ccc(F)cc21 [Example 44, (R)—N—((S)-1-(4-(5-fluoro-3,3-dimethyl-2-oxoindolin-1-yl)piperidin-1-yl)-1-oxo-4-phenylbutan-2-yl)piperidine-3-carboxamide]	≤ 10 nM
CN[C@@H]1CC[C@H](C(=O)N[C@@H](CCc2ccccc2)C(=O)N2CCC(N3C(=O)C(C)(C)c4cc(F)ccc43)CC2)C1 [Example 45, (1S,3R)-N-((S)-1-(4-(5-fluoro-3,3-dimethyl-2-oxoindolin-1-yl)piperidin-1-yl)-1-oxo-4-phenylbutan-2-yl)-3-(methylamino)cyclopentane-carboxamide]	≤ 10 nM
CNC(C)(C)CC(=O)N[C@@H](CCc1ccccc1)C(=O)N1CCC(N2C(=O)C(C)(C)c3cc(F)ccc32)CC1 [Example 46, (S)-N-(1-(4-(5-fluoro-3,3-dimethyl-2-oxoindolin-1-yl)piperidin-1-yl)-1-oxo-4-phenylbutan-2-yl)-3-methyl-3-(methylamino)butanamide]	≤ 10 nM
CN[C@H]1CCN(C(=O)N[C@@H](CCc2ccccc2)C(=O)N2CCC(N3C(=O)C(C)(C)c4ccccc43)CC2)C1 [Example 47, (S)—N—((S)-1-(4-(3,3-dimethyl-2-oxoindolin-1-yl)piperidin-1-yl)-1-oxo-4-phenylbutan-2-yl)-3-(methylamino)pyrrolidine-1-carboxamide]	≤ 10 nM
CC1(C)C(=O)N(C2CCN(C(=O)[C@H](CCc3ccccc3)NC(=O)NC[C@@H]3CCCN3)CC2)c2ccccc21 [Example 48, 1-((S)-1-(4-(3,3-dimethyl-2-oxo-indolin-1-yl)piperidin-1-yl)-1-oxo-4-phenylbutan-2-yl)-3-((S)-pyrrolidin-2-ylmethyl)urea]	≤ 10 nM
CC1(C)C(=O)N(C2CCN(C(=O)[C@H](CCc3ccccc3)NC(=O)N[C@@H]3CCCNC3)CC2)c2ccccc21 [Example 49, 1-((S)-1-(4-(3,3-dimethyl-2-oxo-indolin-1-yl)piperidin-1-yl)-1-oxo-4-phenylbutan-2-yl)-3-((R)-piperidin-3-yl)urea]	≤ 10 nM
CN(C[C@@H]1CCCN1)C(=O)N[C@@H](CCc1ccccc1)C(=O)N1CCC(N2C(=O)C(C)(C)c3ccccc32)CC1 [Example 50, 3-((S)-1-(4-(3,3-dimethyl-2-oxo-indolin-1-yl)piperidin-1-yl)-1-oxo-4-phenylbutan-2-yl)-1-methyl-1-((S)-pyrrolidin-2-ylmethyl)urea]	≤ 10 nM
CC1(C)C(=O)N(C2CCN(C(=O)[C@H](CCc3ccccc3)NC(=O)NC[C@H]3CCCN3)CC2)c2ccccc21 [Example 51, 1-((S)-1-(4-(3,3-dimethyl-2-oxo-indolin-1-yl)piperidin-1-yl)-1-oxo-4-phenylbutan-2-yl)-3-((R)-pyrrolidin-2-ylmethyl)urea]	≤ 10 nM
CC1(C)C(=O)N(C2CCN(C(=O)[C@H](CCc3ccccc3)NC(=O)N[C@@H]3CCNC3)CC2)c2ccccc21 [Example 52, 1-((S)-1-(4-(3,3-dimethyl-2-oxo-indolin-1-yl)piperidin-1-yl)-1-oxo-4-phenylbutan-2-yl)-3-((R)-pyrrolidin-3-yl)urea]	≤ 10 nM
CC1(C)C(=O)N(C2CCN(C(=O)[C@H](CCc3ccccc3)NC(=O)NC[C@@H]3CCNC3)CC2)c2ccccc21 [Example 53, 1-((S)-1-(4-(3,3-dimethyl-2-oxo-indolin-1-yl)piperidin-1-yl)-1-oxo-4-phenylbutan-2-yl)-3-((R)-pyrrolidin-3-ylmethyl)urea]	≤ 10 nM
C[C@@H]1CN(C(=O)N[C@@H](CCc2ccccc2)C(=O)N2CCC(N3C(=O)C(C)(C)c4ccccc43)CC2)CCN1 [Example 54, (R)-N-((S)-1-(4-(3,3-dimethyl-2-oxoindolin-1-yl)piperidin-1-yl)-1-oxo-4-phenylbutan-2-yl)-3-methyl-piperazine-1-carboxamide]	≤ 10 nM
CCC1(NC(=O)N[C@@H](CCc2ccccc2)C(=O)N2CCC(N3C(=O)C(C)(C)c4ccccc43)CC2)CCNCC1 [Example 55, (S)-1-(1-(4-(3,3-dimethyl-2-oxo-indolin-1-yl)piperidin-1-yl)-1-oxo-4-phenylbutan-2-yl)-3-(4-ethylpiperidin-4-yl)urea]	≤ 10 nM
CC1(NC(=O)N[C@@H](CCc2ccccc2)C(=O)N2CCC(N3C(=O)C(C)(C)c4ccccc43)CC2)CCNCC1 [Example 56, (S)-1-(1-(4-(3,3-dimethyl-2-oxo-indolin-1-yl)piperidin-1-yl)-1-oxo-4-phenylbutan-2-yl)-3-(4-methyl-piperidin-4-yl)urea]	≤ 10 nM
CC1(C)C(=O)N(C2CCN(C(=O)[C@H](CCc3ccccc3)NC(=O)N[C@H]3CCNC3)CC2)c2ccccc21 [Example 57, 1-((S)-1-(4-(3,3-dimethyl-2-oxo-indolin-1-yl)piperidin-1-yl)-1-oxo-4-phenylbutan-2-yl)-3-((S)-pyrrolidin-3-yl)urea]	≤ 10 nM
CC1(C)C(=O)N(C2CCN(C(=O)[C@H](CCc3ccccc3)NC(=O)NC[C@@H]3CCCCN3)CC2)c2ccccc21 [Example 60, 1-((S)-1-(4-(3,3-dimethyl-2-oxo-indolin-1-yl)piperidin-1-yl)-1-oxo-4-phenylbutan-2-yl)-3-((S)-piperidin-2-ylmethyl)urea]	≤ 10 nM

Same assay, conditions: ED50 (nM), Table 15; functional activity toward GPR38 (motilin receptor), (S) versus (R) amino acid linker

Compound	EC50
CN[C@H]1CCN(C(=O)N[C@@H](CCc2ccccc2)C(=O)N2CCC(N3C(=O)C(C)(C)c4ccccc43)CC2)C1 [Example 47, (S)—N—((S)-1-(4-(3,3-dimethyl-2-oxoindolin-1-yl)piperidin-1-yl)-1-oxo-4-phenylbutan-2-yl)-3-(methylamino)pyrrolidine-1-carboxamide]	0.98 nM
